Results published in article PMC5534107, “Sensitization of ASIC3 by proteinase-activated receptor 2 signaling contributes to acidosis-induced nociception” (Journal of Neuroinflammation, 2017).

Key:
[1] = test system: ASIC3 currents in CHO cells expressing alone ASIC3, but not expressing PAR2; experiment: Whole-cell patch clamp, CHO cells expressing ASIC3 alone (no PAR2); format: cell-based, Chinese hamster; settings: 10^−5 M; P > 0.1; n = 10
Method: (§1) ASIC3, ASIC1a, ASIC1b, ASIC2b, and PAR2 complementary DNAs (cDNAs) were used for heterologous expression in CHO cells as described previously (Wang et al., 2013). In brief, CHO cells were cultured at 37 °C in a humidified atmosphere of 5% CO2 and […] and passaged twice a week. Transient transfection of CHO cells was performed using HilyMax liposome transfection reagent (Dojindo Laboratories). CHO cells were maintained in F-12 Nutrient Mixture (added 1.176 g of NaHCO3/L medium) supplemented with 10% fetal bovine serum and 1% gluta-MAXTM-1 (100×; Invitrogen). When ASIC3 and PAR2 cDNAs were co-transfected, the ratio was kept at 1:1. All plasmids used contained, in addition to the desired ASIC3 cDNA, the coding sequence for enhanced green fluorescent protein to aid identification of transfected cells. Electrophysiological measurements were performed 24–48 h after transfection.
(§2) Whole-cell patch clamp and voltage clamp recordings were carried out at room temperature (22–25 °C) using a MultiClamp-700B amplifier and Digidata-1440A A/D converter (Axon Instruments, CA, USA). […]
(§3) Drugs purchased from Sigma and used in the experiments include hydrochloric acid, 2-furoyl-LIGRLO-NH2 (a PAR2-activating peptide (PAR2-AP)), trypsin, FSLLRY-NH2, APETx2, and capsazepine. […] The application pipette tips were positioned ∼30 μm away from the recorded neurons. […]

[2] = test system: heteromeric ASIC2b+3 channels expressed with PAR2 in CHO cells; experiment: Whole-cell patch clamp, heteromeric ASIC2b+3 channels expressed with PAR2 in CHO cells; format: cell-based, Chinese hamster; settings: PAR2-AP 10^−5 M for 1 min; I pH 6.6; ASIC3:other subunit 1:3; n = 8
Method: as §1, §2, §3

[3] = test system: rat DRG neurons; experiment: Current clamp of acidosis-evoked action potentials (spikes) in rat DRG neurons; format: cell-based; settings: PAR2-AP 10^−5 M for 1 min; pH 6.6 for 5 s; capsazepine 10 μM; control 3.5 ± 0.6; P < 0.05; n = 9
Text: The experimental protocol was approved by the animal research ethics committee of Hubei University of Science and Technology (No. 2016–67). All procedures conformed to international guidelines on the ethical use of animals, and every effort was made to minimize the number of animals used and their sufferings. Five- to 6-week-old Sprague–Dawley male rats were anesthetized with 7% chloral hydrate and then decapitated. The DRGs were taken out and transferred immediately into Dulbecco’s modified Eagle’s medium (DMEM, Sigma) at pH 7.4. After the removal of the surrounding connective tissues, the DRGs were minced with fine spring scissors and the ganglion fragments were placed in a flask containing 5 ml of DMEM in which trypsin (type II-S, Sigma) 0.5 mg/ml, collagenase (type I-A, Sigma) 1.0 mg/ml, and DNase (type IV, Sigma) 0.1 mg/ml had been dissolved and incubated at 35 °C in a shaking water bath for 25–30 min. Soybean trypsin inhibitor (type II-S, Sigma) 1.25 mg/ml was then added to stop trypsin digestion. The incubating solution was then replaced by external solution. […]
as §3

2-furoyl-LIGRLO-NH2 [PAR2-AP]
effect on I pH 6.6 in ASIC3-transfected CHO cells without PAR2 [1]: Neither PAR2-AP nor trypsin had an effect
increase of peak current of heteromeric ASIC2b+3 channels [2]: 68.1 ± 7.3%
mean number of spikes induced by acidosis after PAR2-AP pretreatment [3]: 6.3 ± 0.9
